Where “and” joins values, the source holds several entries; their conditions need not be identical. Equal values may be shown once.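 Compound exposure: 48 hours, 5 concentrations, 96-well plates. GI50 is the concentration that inhibits growth by half. TGI denotes the concentration required for complete inhibition of growth.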
Assays:
Experiment in all cases: NCI-60 cell line screen, 48 h
U251 CNS = system: U251 CNS
HOP-92 NSCLC = system: HOP-92 NSCLC
SN12C renal = system: SN12C renal
MDA-MB-435 = system: MDA-MB-435
MDA-MB-231 breast = system: MDA-MB-231 breast
UACC-257 melanoma = system: UACC-257 melanoma
HS 578T breast = system: HS 578T breast
OVCAR-8 ovarian = system: OVCAR-8 ovarian
A498 renal = system: A498 renal
HCT-15 colon = system: HCT-15 colon

| SMILES | GI50 (U251 CNS) | TGI (U251 CNS) | GI50 (HOP-92 NSCLC) | TGI (HOP-92 NSCLC) | GI50 (SN12C renal) | TGI (SN12C renal) | GI50 (MDA-MB-435) | TGI (MDA-MB-435) | GI50 (MDA-MB-231 breast) | TGI (MDA-MB-231 breast) | GI50 (UACC-257 melanoma) | TGI (UACC-257 melanoma) | GI50 (HS 578T breast) | TGI (HS 578T breast) | GI50 (OVCAR-8 ovarian) | TGI (OVCAR-8 ovarian) | GI50 (A498 renal) | TGI (A498 renal) | GI50 (HCT-15 colon) | TGI (HCT-15 colon) |
| --- | --- | --- | --- | --- | --- | --- | --- | --- | --- | --- | --- | --- | --- | --- | --- | --- | --- | --- | --- | --- |
| O=C(Nc1nc(-c2ccccc2)cs1)c1cc(O)c(O)c(O)c1 | 2.88 µM | 21 µM | 1.56 µM | 9.66 µM | 3.19 µM | 29.9 µM | 5.59 µM | 56.2 µM | 1.58 µM | 24.4 µM | 7.84 µM | 52.1 µM | 3.37 µM | 83.8 µM | 3.38 µM | > 100 µM | 5.41 µM | 28.2 µM | 3.14 µM | > 100 µM |
| Oc1c(Cl)cc(CN(Cc2cc(Cl)c(O)c(Cl)c2)C2CCCCC2)cc1Cl |  | > 100 µM |  | > 100 µM |  | > 100 µM |  | > 100 µM |  | > 100 µM |  | > 100 µM |  | > 100 µM |  | > 100 µM |  | > 100 µM |  | > 100 µM |
| CCOC(=O)Nc1ccc(C(=O)/C=C/c2ccccc2)cc1 | 12.6 µM | 30.4 µM | 11.2 µM | 66.5 µM | 24.4 µM | > 100 µM | 5.13 µM | > 100 µM | 33.4 µM | > 100 µM | 55 µM | > 100 µM | 30.9 µM | 86 µM | 33.5 µM | > 100 µM | 26.1 µM | 72.6 µM | 27.2 µM | > 100 µM |
| Cc1cccc2c(N=Nc3ccccc3[N+](=O)[O-])c(O)[nH]c12 |  | 7.68 µM |  | 8.16 µM |  | 26.8 µM |  | > 100 µM |  | 6.58 µM |  | > 53.5 µM |  | 16.4 µM |  | > 38.2 µM |  | > 38.3 µM |  | 97.7 µM |
| C[n+]1cc2cc3c(cc2c2ccccc21)OCO3 | 1.33 µM | 11.3 µM | 2.77 µM | 23.8 µM | 2.31 µM | 11.1 µM | 5.32 µM | 21 µM | 10.8 µM | 54 µM | 3.85 µM | 14 µM | 2 µM | 7.71 µM | 3.04 µM | 30.5 µM | 1.05 µM | 8.57 µM | 70.2 µM | > 100 µM |
| Cc1cc(S(=O)(=O)Nc2nc3ccccc3[nH]2)c(SCc2ccccc2)cc1Cl | 14.9 µM | 50.7 µM | 62.2 µM | > 100 µM | 29.6 µM | > 100 µM | > 100 µM | > 100 µM | 18.2 µM | 51.5 µM | > 100 µM | > 100 µM | 78.1 µM | > 100 µM | 37.5 µM | > 100 µM | > 100 µM | > 100 µM | > 100 µM | > 100 µM |
| CC1=C/C(O)CC(=O)Cc2nc(co2)C(=O)N2CCC=C2C(=O)OC(C(C)C)C(C)/C=C\C(=O)NC/C=C\1 (stereo not given) | 24.8 µM | > 100 µM | 18 µM | > 86.2 µM | 25.9 µM | > 100 µM and 29.2 µM | 20.3 µM | > 94.2 µM and 80.4 µM | 27.1 µM | > 71.4 µM and 61.4 µM | 12.6 µM | 35.5 µM and > 100 µM | > 75.8 µM | > 100 µM and 59.4 µM | 24.8 µM | > 100 µM and 35 µM | 44.9 µM | > 84.1 µM and 76.3 µM | 28.8 µM | > 89.5 µM and 46.6 µM |

From PubChem BioAssay (NCI)
